Source: patent US10000474B2, “Histone deacetylase inhibitors and uses thereof” (MUSC FOUNDATION FOR RESEARCH DEVELOPMENT, priority 2014, dated 2018)
Structures can show the parent of a compound that is named as a salt.

Tests used:
Recombinant human HDAC6 = target: T1, Recombinant human HDAC6 (Homo sapiens, UniProt Q9UBN7); assay: HDAC inhibitory assay, HDAC6 (Boc-Lys(Ac)-AMC substrate); type: biochemical; details: test concentration not given; average of triplicate
T1 construct: purchased BPS Biosciences
T1 sequence (Q9UBN7 1-1215): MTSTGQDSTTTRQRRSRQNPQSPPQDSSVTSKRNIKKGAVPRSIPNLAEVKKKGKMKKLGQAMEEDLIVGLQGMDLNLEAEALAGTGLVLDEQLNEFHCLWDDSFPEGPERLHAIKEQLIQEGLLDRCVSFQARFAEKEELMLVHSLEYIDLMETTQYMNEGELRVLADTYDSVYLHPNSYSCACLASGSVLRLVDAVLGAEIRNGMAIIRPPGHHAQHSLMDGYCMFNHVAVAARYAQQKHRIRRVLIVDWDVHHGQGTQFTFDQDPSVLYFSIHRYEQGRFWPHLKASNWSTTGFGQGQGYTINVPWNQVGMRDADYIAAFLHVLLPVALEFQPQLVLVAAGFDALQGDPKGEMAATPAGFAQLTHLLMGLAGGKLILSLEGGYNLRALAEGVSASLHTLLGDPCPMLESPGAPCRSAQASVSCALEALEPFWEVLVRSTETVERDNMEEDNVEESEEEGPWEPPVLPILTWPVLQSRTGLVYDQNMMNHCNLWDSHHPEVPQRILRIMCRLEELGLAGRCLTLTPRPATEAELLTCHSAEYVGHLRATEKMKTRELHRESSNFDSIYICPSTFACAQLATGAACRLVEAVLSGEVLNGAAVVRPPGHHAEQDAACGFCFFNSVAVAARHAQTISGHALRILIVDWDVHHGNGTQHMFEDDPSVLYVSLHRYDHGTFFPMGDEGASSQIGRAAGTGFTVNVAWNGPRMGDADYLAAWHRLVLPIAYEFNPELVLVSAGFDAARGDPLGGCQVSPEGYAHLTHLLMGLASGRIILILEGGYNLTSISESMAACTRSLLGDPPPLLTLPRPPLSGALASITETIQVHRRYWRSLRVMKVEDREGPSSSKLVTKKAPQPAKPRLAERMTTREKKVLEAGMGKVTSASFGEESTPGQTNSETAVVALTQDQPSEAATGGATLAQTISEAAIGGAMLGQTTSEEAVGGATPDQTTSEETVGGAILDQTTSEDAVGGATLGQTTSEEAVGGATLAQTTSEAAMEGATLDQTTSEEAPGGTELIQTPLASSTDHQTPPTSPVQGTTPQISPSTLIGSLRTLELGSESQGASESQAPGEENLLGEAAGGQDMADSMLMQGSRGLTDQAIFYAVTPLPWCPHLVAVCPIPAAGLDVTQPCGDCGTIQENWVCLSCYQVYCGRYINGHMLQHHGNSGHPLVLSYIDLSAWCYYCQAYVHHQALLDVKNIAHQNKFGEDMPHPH
Experimental: (§1) The compounds of Examples 1-12 and 14-16 were evaluated for their ability to act as inhibitors of human HDAC. The compound of Example 13 was not tested. Recombinant human HDAC1, HDAC2, HDAC3/NcoR2, HDAC5, HDAC6, HDAC8, HDAC9, HDAC10 and HDAC11 were purchased from BPS Biosciences. Recombinant human HDAC4 and HDAC7 were purchased from Millipore. The substrate Boc-Lys(Ac)-AMC and Boc-Lys(Tfa)-AMC were purchased from Bachem. The substrate Ac-RHK(Ac)K(Ac)-AMC was purchased from Enzo Life Sciences. Due to the different specific activities of each isoform, different amount of enzyme was used in each isoform screening assay. In these assays, trichostatin A (TSA), suberanilohydroxamic acid and diphenylacetohydroxamic acid (DPAHA) were employed as positive controls. All determinations were carried out in triplicate, and reported values were the average of these determinations, which in no case varied by more than 5%.
Then 25 μl of the Boc-Lys(Ac)-AMC substrate (50 μM final concentration) was added and incubated at 37° C. for 30-60 min, and followed by adding 50 μl of developer (1 mg/ml trypsin and 1 μM TSA). The last step was reading the samples in a SpectraMax M5 plate reader (Molecular Devices) at an excitation wavelength of 360 nm and an emission wavelength of 460 nm.

Recombinant human HDAC5 = target: T2, Recombinant human HDAC5 (Homo sapiens, UniProt Q9UQL6); assay: HDAC inhibitory assay, HDAC5 (Boc-Lys(Tfa)-AMC substrate); type: biochemical; details: test concentration not given; average of triplicate
T2 construct: purchased BPS Biosciences
Experimental: as §1
For evaluating the inhibition of class IIa HDACs (HDAC4, HDAC5, HDAC7 and HDAC9) and class IV HDAC (HDAC11), 10 μl of test samples were first incubated with 1 ng HDAC4 (specific activity=15400 pmol/min/μg), 5 ng HDAC5 (specific activity=2521 pmol/min/μg), 1 ng HDAC7 (specific activity=26340 pmol/min/μg), 5 ng HDAC9 (specific activity=3000 pmol/min/μg), and 500 ng HDAC11 (specific activity=1.8 pmol/min/μg) respectively. Then 25 μl of the Boc-Lys(Tfa)-AMC substrate (50 μM final concentration) was added and incubated at 37° C. for 30-60 min, and followed by adding 50 μl of developer. The last step was to read the samples in a SpectraMax M5 plate reader (Molecular Devices) at an excitation wavelength of 360 nm and an emission wavelength of 460 nm.

[1] = Cell proliferation assay (MTS, cytotoxicity); type: cell-based; details: human; cell line not given (MV4-11 24 hours or MCF-7 72 hours); 1 μM to 100 μM; average of triplicate
Experimental: The cytotoxicity of representative compounds of the invention was determined by MTS assay, following the protocol of CellTiter 96® AQueous Non-Radioactive Cell Proliferation Assay (Promega). The cells used in this assay were MV4-11 (human, macrophage, biphenotypic B myelomonocytic leukemia) and MCF-7 (human, epithelial, adenocarcinoma). […] The MV-4-11 cells were incubated with the representative compounds for 24 hours at 37° C. in 5% CO2 while the MCF-7 cells were first seeded on the 96-well plate and were allowed to attach for 1 day and then were incubated with different concentrations of the representative compound for 72 hours at 37° C. in 5% CO2. After 24 or 72 hours 20 μl of MTS reagent solution was added into each well and the cells were incubated for another 4 hours at 37° C. under 5% CO2 environment. The absorbance was measured at 490 nm in a SpectraMax M5 plate reader (Molecular Devices) to determine the cell viability. The absorbance was directly proportional to the amount of viable cells. All determinations were carried out in triplicate, and reported values in Table 2 below were the average of these determinations, which in no case varied by more than 5%.

T2 sequence (Q9UQL6 whole entry): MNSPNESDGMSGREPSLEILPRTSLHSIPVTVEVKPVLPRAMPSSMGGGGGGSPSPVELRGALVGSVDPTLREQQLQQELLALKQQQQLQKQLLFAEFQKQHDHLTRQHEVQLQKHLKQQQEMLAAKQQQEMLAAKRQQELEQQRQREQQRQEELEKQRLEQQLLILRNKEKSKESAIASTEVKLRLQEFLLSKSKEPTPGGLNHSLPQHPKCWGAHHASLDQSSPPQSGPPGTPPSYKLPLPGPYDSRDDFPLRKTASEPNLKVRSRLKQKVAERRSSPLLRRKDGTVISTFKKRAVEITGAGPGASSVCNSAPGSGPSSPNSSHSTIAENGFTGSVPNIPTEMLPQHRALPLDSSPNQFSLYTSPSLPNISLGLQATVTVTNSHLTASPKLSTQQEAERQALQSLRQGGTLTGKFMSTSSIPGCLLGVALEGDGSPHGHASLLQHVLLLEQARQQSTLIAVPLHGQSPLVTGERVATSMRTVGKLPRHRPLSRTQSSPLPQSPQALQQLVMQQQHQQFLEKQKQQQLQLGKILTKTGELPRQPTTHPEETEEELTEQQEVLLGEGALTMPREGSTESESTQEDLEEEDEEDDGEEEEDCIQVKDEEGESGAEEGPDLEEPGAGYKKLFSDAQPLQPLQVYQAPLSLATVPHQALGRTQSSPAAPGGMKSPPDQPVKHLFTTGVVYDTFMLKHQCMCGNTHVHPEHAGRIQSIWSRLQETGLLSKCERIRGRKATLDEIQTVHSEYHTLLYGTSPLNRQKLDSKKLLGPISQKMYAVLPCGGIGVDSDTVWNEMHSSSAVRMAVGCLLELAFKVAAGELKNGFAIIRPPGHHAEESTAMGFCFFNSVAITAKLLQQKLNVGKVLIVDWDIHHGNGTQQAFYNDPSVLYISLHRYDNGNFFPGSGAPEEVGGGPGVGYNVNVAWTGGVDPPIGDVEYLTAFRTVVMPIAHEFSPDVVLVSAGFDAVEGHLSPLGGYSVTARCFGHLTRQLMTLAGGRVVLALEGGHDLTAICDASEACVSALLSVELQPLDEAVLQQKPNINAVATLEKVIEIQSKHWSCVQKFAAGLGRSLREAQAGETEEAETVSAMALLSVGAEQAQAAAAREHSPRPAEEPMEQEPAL

Row | SMILES | melting point [°C] | HDAC 6 inhibitory activity (Recombinant human HDAC6) [%] | HDAC 5 inhibitory activity (Recombinant human HDAC5) [%] | IC50 [1] [µM]
1 | O=C(Nc1ccccc1)c1coc(-c2ccccc2O)n1 [Example 1, 2-(2-Hydroxyphenyl)-N-phenyloxazole-4-carboxamide] | 173 to 174 | 50.3 | 9.3 | 25
2 | O=C(NC(c1ccccc1)c1ccccc1)c1coc(-c2ccccc2O)n1 [Example 2, N-Benzhydryl-2-(2-hydroxyphenyl)oxazole-4-carboxamide] | 226 to 227 | 61.6 | 14.9 | 7.6
3 | O=C(NCC(c1ccccc1)c1ccccc1)c1coc(-c2ccccc2O)n1 [Example 3, N-(2,2-Diphenylethyl)-2-(2-hydroxyphenyl)oxazole-4-carboxamide] | 206 to 208 | 49.1 | 0 | 40
4 | O=C(NCCC(c1ccccc1)c1ccccc1)c1coc(-c2ccccc2O)n1 [Example 4, N-(3,3-Diphenylpropyl)-2-(2-hydroxyphenyl)oxazole-4-carboxamide] | – | 48.1 | 11.3 | –
5 | O=C(Nc1ccc(-c2ccccc2)cc1)c1coc(-c2ccccc2O)n1 [Example 5, N-([1,1′-Biphenyl]-4-yl)-2-(2-hydroxyphenyl)oxazole-4-carboxamide] | 218 to 219 | 45.6 | 0 | –
6 | O=C(NCc1ccc(-c2ccccc2)cc1)c1coc(-c2ccccc2O)n1 [Example 6, N-([1,1′-Biphenyl]-4-ylmethyl)-2-(2-hydroxyphenyl)oxazole-4-carboxamide] | 220 to 221 | 47.8 | 9.2 | > 100
7 | O=C(NCc1cccc2ccccc12)c1coc(-c2ccccc2O)n1 [Example 7, 2-(2-Hydroxyphenyl)-N-(naphthalen-1-ylmethyl)oxazole-4-carboxamide] | – | 40.4 | 3.2 | –
8 | O=C(NCCc1c[nH]c2ccccc12)c1coc(-c2ccccc2O)n1 [Example 8, N-(2-(1H-Indol-3-yl)ethyl)-2-(2-hydroxyphenyl)oxazole-4-carboxamide] | – | 30.8 | 0 | –
9 | O=C(NCCCCN1C(=O)c2ccccc2C1=O)c1coc(-c2ccccc2O)n1 [Example 9, N-(4-(1,3-Dioxoisoindolin-2-yl)butyl)-2-(2-hydroxyphenyl)oxazole-4-carboxamide] | – | 46.0 | 10.3 | –
10 | O=C(NCCCCNC(=O)C(c1ccccc1)c1ccccc1)c1coc(-c2ccccc2O)n1 [Example 10, N-(4-(2,2-Diphenylacetamido)butyl)-2-(2-hydroxyphenyl)oxazole-4-carboxamide] | – | 26.7 | 1.4 | –
11 | O=C(NCCCCNC(=S)NCCC(c1ccccc1)c1ccccc1)c1coc(-c2ccccc2O)n1 [Example 11, N-(4-(3-(3,3-Diphenylpropyl)thioureido)butyl)-2-(2-hydroxyphenyl)oxazole-4-carboxamide] | – | 50.2 | 43.5 | –
12 | O=C(NCCCCNCCC(c1ccccc1)c1ccccc1)c1coc(-c2ccccc2O)n1 [Example 12, N-(4-((3,3-Diphenylpropyl)amino)butyl)-2-(2-hydroxyphenyl)oxazole-4-carboxamide hydrochloride] | – | 28.9 | 6.9 | –
13 | O=C(O)c1ccc(CNC(=O)c2coc(-c3ccccc3O)n2)cc1 [Example 14, 4-((2-(2-Hydroxyphenyl)oxazole-4-carboxamido)methyl)benzoic acid] | 248 to 251 | 60.3 | 12.6 | –
14 | O=C(Nc1ccccc1)c1ccc(CNC(=O)c2coc(-c3ccccc3O)n2)cc1 [Example 15, 2-(2-Hydroxyphenyl)-N-(4-(phenylcarbamoyl)benzyl)oxazole-4-carboxamide] | – | 30.8 | 0 | –
15 | O=C(CNC(=O)c1coc(-c2ccccc2O)n1)Nc1ccccc1 [Example 16, 2-(2-Hydroxyphenyl)-N-(2-oxo-2-(phenylamino)ethyl)oxazole-4-carboxamide] | – | 59.9 | 12.5 | –
